# Measurements taken from article PMC12085588 (Scientific Reports, 2025).
# Where two headings read alike, the source gives them in different places.
# Key:
# [1] = Cytotoxicity assay; type: cell-based, human; conditions: human, A549 cells
# [2] = tested on: A549 cells; test: Cytotoxicity assay; type: cell-based, human
# [3] = tested on: IAV H1N1 strain A/Puerto Rico/8/1934; test: microbe, parasite or virus in culture; type: cell-based, influenza A virus; conditions: for IC50: Influenza A virus, H1N1, A549, 48 h
# [4] = tested on: IAV H1N1 strain A/Puerto Rico/8/1934; type: cell-based, influenza A virus
# [5] = tested on: host antiviral genes (IFITM-1, ISG15, ISG20, Mx-A, OAS-1, RSAD2, SHFL) in A549 cells; type: cell-based, human
# [6] = tested on: IAV H1N1 strain A/Puerto Rico/8/1934; test: microbe, parasite or virus in culture; type: cell-based, influenza A virus
# [7] = tested on: IAV H1N1 strain A/Puerto Rico/8/1934; test: microbe, parasite or virus in culture; type: cell-based, influenza A virus; remark: listed apart in the source
# [8] = tested on: IAV H1N1 strain A/Puerto Rico/8/1934; test: microbe, parasite or virus in culture; type: cell-based, influenza A virus; remark: listed apart in the source
# [9] = tested on: IAV H1N1 strain A/Puerto Rico/8/1934; test: microbe, parasite or virus in culture; type: cell-based, influenza A virus; remark: listed apart in the source
# [10] = tested on: dengue virus serotype 2 (DENV-2); conditions: cells treated 2 h before viral infection (-2 h); ref 15 (Oo et al.); cited from earlier work
# [11] = after 48 h of incubation at concentrations of up to 1000 μM
SMILES,CC50 at 3 days [1] [µM],"cytotoxicity on A549 cells [2, 11]",IC50 [3] [µM],cytotoxicity on A549 cells ([2]; after 48 h of incubation at concentrations of up to 5000 μM),viral RNA levels [3],percentage of viral RNA copy numbers vs virus control [4],fold change of ISG15 expression (relative quantification) [5],fold change of Mx-A expression (relative quantification) [5],fold change of OAS-1 expression (relative quantification) [5],fold change of SHFL expression (relative quantification) [5],"viral RNA reduction, virucidal assay ([6]; 25 μM)","IC50 ([6]; Influenza A virus, H1N1, A549, read-out: IC50 of diosmin, virucidal assay) [µM]","viral RNA reduction, attachment assay ([7]; 25 μM)","IC50 ([7]; Influenza A virus, H1N1, A549, read-out: IC50 of diosmin, attachment assay) [µM]","reduction of viral RNA, entry assay ([8]; 25 μM)","IC50 ([8]; Influenza A virus, H1N1, A549, read-out: IC50 of diosmin, entry assay) [µM]","viral RNA reduction, post-entry assay ([9]; 25 μM)","IC50 ([9]; Influenza A virus, H1N1, A549, read-out: IC50 of diosmin, post-entry assay) [µM]",suppression of DENV-2 RNA [10]
O=c1cc(-c2ccc(O)c(O)c2)oc2c([C@@H]3O[C@H](CO)[C@@H](O)[C@H](O)[C@H]3O)c(O)cc(O)c12 [Orientin],1043 ± 3.41,no significant cytotoxicity,8.98 ± 2.03,,,,,,,,,,,,,,,,
"COc1ccc(-c2cc(=O)c3c(O)cc(O[C@@H]4O[C@H](CO[C@@H]5O[C@@H](C)[C@H](O)[C@@H](O)[C@H]5O)[C@@H](O)[C@H](O)[C@H]4O)cc3o2)cc1O [Diosmin, diosmetin 7-O-rutinoside]",11300,,2.91 ± 3.22,no significant cytotoxicity,less than 20%,significant reduction,6.774,2.163,2.035,4.148,exceeding 40%,41.3 ± 4.56,exceeding 40%,13.3 ± 2.37,under 40%,39.2 ± 0.63,exceeding 40%,12.2 ± 1.55,over 50%
O=c1c(O)c(-c2ccc(O)c(O)c2)oc2cc(O)ccc12 [Fisetin],1190 ± 3.52,no significant cytotoxicity,143 ± 6.19,,,,,,,,,,,,,,,,
